Laboratory results taken from patent US20260365653A1, “IRREVERSIBLE MUTEGFR INHIBITORS” (Bayer Aktiengesellschaft, priority 2022, published 2026).

Tests used:
[1] = target: T1, mutEGFR (D770_N771insSVD) (Homo sapiens, UniProt P00533, DUP768-770); assay: Exon20-Mutant-EGFR (D770_N771insSVD) kinase assay (TR-FRET); type: biochemical
T1 construct: GST-EGFR #3 (SVD between D770 and N771); made in house; host or cells: Sf9 insect cells (baculovirus)

[2] = target: T2, mutEGFR (D770_N771insNPG, T790) (Homo sapiens, UniProt P00533, INS770NPG/T790M); assay: mutEGFR (D770_N771insNPG, T790) kinase assay; type: biochemical
T2 construct: exact insNPG construct not described; in-house EGFR proteins were N-terminal GST fusions from baculovirus/insect cells (borders R669-A1210 given only for WT, insSVD, insASV)
Text: The different EGFR proteins used in the biochemical kinase activity inhibition assays were generated inhouse by expression in insect cells using Baculo Virus system and subsequent purification as described in the following paragraphs.
The cDNAs encoding the various protein sequences from human EGFR human (P00533) were optimized for expression in eukaryotic cells and synthesized by the GeneArt Technology at Life Technologies.

[3] = test system: BA/F3 (insSVD) cells; assay: Ba/F3-EGFR-insSVD cell survival assay (Cell Titer-Glo); type: cell-based
Method in brief: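 Ba/F3 cells stably expressing retroviral EGFR-insSVD or insSVD T790M, grown without IL-3 on 10 ng/ml EGF, 4000 cells/well. Compound pinned in, 48 h at 37° C. Viability by CellTiter-Glo luminescence.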

[4] = mutEGFR (D770_N771insSVD) kinase assay IC50, Table 2a, D770_N771insSVD, 2 mM ATP
[5] = Mus musculus, BaF3, 48 h, Table 3a, cell survival, Cell Titer-Glo, with 10 ng/ml EGF, without IL-3
[6] = Table 3a, cell survival, Cell Titer-Glo, with 10 ng/ml EGF, without IL-3, 48 h

T2 sequence (P00533 with tags, fused parts or gaps INS770NPG/T790M limits assumed): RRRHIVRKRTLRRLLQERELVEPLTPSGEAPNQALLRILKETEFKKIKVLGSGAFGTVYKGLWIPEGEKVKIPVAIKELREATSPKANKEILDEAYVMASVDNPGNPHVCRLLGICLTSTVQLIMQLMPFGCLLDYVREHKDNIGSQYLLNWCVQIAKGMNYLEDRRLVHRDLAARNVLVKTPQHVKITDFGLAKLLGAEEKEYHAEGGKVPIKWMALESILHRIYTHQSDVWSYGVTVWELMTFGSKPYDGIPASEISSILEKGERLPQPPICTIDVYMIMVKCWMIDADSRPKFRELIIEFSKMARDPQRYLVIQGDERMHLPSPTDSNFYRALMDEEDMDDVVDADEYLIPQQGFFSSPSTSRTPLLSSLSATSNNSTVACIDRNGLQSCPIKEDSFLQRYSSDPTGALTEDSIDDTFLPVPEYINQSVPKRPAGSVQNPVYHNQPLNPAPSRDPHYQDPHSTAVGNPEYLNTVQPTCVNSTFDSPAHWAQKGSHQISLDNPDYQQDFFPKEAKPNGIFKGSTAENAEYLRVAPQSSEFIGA
T1 sequence (P00533 with tags, fused parts or gaps DUP768-770): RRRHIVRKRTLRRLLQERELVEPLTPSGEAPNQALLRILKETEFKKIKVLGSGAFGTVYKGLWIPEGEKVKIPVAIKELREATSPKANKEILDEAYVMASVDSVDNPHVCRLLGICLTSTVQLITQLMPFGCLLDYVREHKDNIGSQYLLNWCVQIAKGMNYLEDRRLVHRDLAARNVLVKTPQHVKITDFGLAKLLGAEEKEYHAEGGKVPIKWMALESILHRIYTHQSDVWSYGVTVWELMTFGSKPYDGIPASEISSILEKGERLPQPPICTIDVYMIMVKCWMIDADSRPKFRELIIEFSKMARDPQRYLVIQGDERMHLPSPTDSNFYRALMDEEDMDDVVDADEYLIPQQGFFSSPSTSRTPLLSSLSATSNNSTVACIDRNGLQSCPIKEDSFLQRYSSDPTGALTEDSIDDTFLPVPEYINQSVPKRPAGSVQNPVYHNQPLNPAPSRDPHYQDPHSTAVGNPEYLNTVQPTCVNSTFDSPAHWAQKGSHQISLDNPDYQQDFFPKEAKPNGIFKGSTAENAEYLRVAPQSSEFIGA

Row | IC50 [1, 4] | IC50 ([2]; Table 2a, D770_N771insNPG) | IC50 ([1]; mutEGFR (D770_N771insSVD) kinase assay IC50, Table 2b (from US Priority Patent Application), mutEGFR D770_N771insSVD) | IC50 ([2]; Table 2b (from US Priority Patent Application), mutEGFR D770_N771insNPG) | Compound | IC50 [3, 5] | IC50 [3, 6] | IC50 ([3]; Mus musculus, BaF3, 48 h, Table 3b, Ba/F3 EGFR-insSVD)
1 | 100 nM | 1070 nM |  |  | C=CC(=O)N1CCn2nc(-c3ccc(C(F)(F)F)cc3)c(-c3ccnc4[nH]ccc34)c2C1C (single isomer, unassigned; isomer 1) [Example 258, 1-(4-methyl-3-(1H-pyrrolo[2,3-b]pyridin-4-yl)-2-(4-(trifluoromethyl)phenyl)-6,7-dihydropyrazolo[1,5-a]pyrazin-5(4H)-yl) prop-2-en-1-one (isomer 1)] |  | 82.6 nM | 
2 | 6.99 nM | 16.4 nM |  |  | Cc1cc(-c2nn3c(c2-c2ccncc2)CN(C(=O)/C=C/CN(C)C)C(C)(C)C3)ccc1Cl [Example 218, (2E)-1-[2-(4-chloro-3-methylphenyl)-6,6-dimethyl-3-(pyridin-4-yl)-6,7-dihydropyrazolo[1,5-a]pyrazin-5(4H)-yl]-4-(dimethylamino)but-2-en-1-one] | 367 nM |  | 
3 | 78.1 nM | 604 nM |  |  | C=CC(=O)N1Cc2c(-c3ccnc4[nH]cc(C)c34)c(-c3ccc(C(F)(F)F)cc3)nn2C[C@@H]1C [Example 248, 1-[(6S)-6-methyl-3-(3-methyl-1H-pyrrolo[2,3-b]pyridin-4-yl)-2-[4-(trifluoromethyl)phenyl]-6,7-dihydropyrazolo[1,5-a]pyrazin-5(4H)-yl]prop-2-en-1-one] | 59.4 nM |  | 
4 | 11.7 nM | 2840 nM |  |  | CC1c2c(-c3ccnc4[nH]ccc34)c(-c3ccc(C(F)(F)F)cc3)nn2CCN1C(=O)/C=C/CN(C)C (single isomer, unassigned; isomer 2) [Example 252, 4-(dimethylamino)-1-[4-methyl-3-(1H-pyrrolo[2,3-b]pyridin-4-yl)-2-[4-(trifluoromethyl)phenyl]-6,7-dihydropyrazolo[1,5-a]pyrazin-5(4H)-yl]but-2-en-1-one (isomer 2)] | 180 nM |  | 
5 | 0.129 nM | 0.34 nM |  |  | C=CC(=O)N1C(C)c2c(-c3ccncc3)c(-c3ccc(Cl)cc3F)nn2C[C@@H]1C (single isomer, unassigned; isomer 1) [Example 292] |  | 4.08 nM | 
6 | 0.144 nM | 0.399 nM |  |  | C=CC(=O)N1CCn2nc(-c3ccc4occc4c3)c(-c3ccncc3)c2C1 [Example 194, 1-[2-(1-benzofuran-5-yl)-3-(pyridin-4-yl)-6,7-dihydropyrazolo[1,5-a]pyrazin-5(4H)-yl]prop-2-en-1-one] | 15.3 nM |  | 
7 | 0.0813 nM | 0.151 nM |  |  | C=CC(=O)N1Cc2c(-c3ccncc3)c(-c3ccc4sccc4c3)nn2C(C)C1 (racemic) [Example 280, 1-[(7RS)-2-(1-benzothiophen-5-yl)-7-methyl-3-(pyridin-4-yl)-6,7-dihydropyrazolo[1,5-a]pyrazin-5(4H)-yl]prop-2-en-1-one] | 6.82 nM |  | 
8 | 0.131 nM | 0.203 nM |  |  | C[C@@H]1Cn2nc(-c3ccc(Cl)cc3)c(-c3ccncc3)c2CN1C(=O)/C=C/CN(C)C [Example 246, (2E)-1-[(6R)-2-(4-chlorophenyl)-6-methyl-3-(pyridin-4-yl)-6,7-dihydropyrazolo[1,5-a]pyrazin-5(4H)-yl]-4-(dimethylamino)but-2-en-1-one] | 33.7 nM |  | 
9 | 4040 nM | 6300 nM |  |  | Cc1c[nH]c2nccc(-c3c(-c4ccc(C(F)(F)F)cc4)nn4c3C(C)N(C(=O)/C=C/CN(C)C)CC4)c12 (single isomer, unassigned; isomer 1) [Example 265, (E)-4-(dimethylamino)-1-(4-methyl-3-(3-methyl-1H-pyrrolo[2,3-b]pyridin-4-yl)-2-(4-(trifluoromethyl)phenyl)-6,7-dihydropyrazolo[1,5-a]pyrazin-5(4H)-yl) but-2-en-1-one (isomer 1)] |  | 172 nM | 

More lines, now with the values behind:

Row | Compound | IC50 [1, 4] | IC50 ([2]; Table 2a, D770_N771insNPG) | IC50 ([1]; mutEGFR (D770_N771insSVD) kinase assay IC50, Table 2b (from US Priority Patent Application), mutEGFR D770_N771insSVD) | IC50 ([2]; Table 2b (from US Priority Patent Application), mutEGFR D770_N771insNPG) | IC50 [3, 5] | IC50 [3, 6] | IC50 ([3]; Mus musculus, BaF3, 48 h, Table 3b, Ba/F3 EGFR-insSVD)
10 | C=CC(=O)N1Cc2c(-c3ccncc3)c(-c3ccc(C(F)(F)F)cc3F)nn2C[C@@H]1C [Example 124, 1-[(6S)-2-[2-fluoro-4-(trifluoromethyl)phenyl]-6-methyl-3-(pyridin-4-yl)-6,7-dihydropyrazolo[1,5-a]pyrazin-5(4H)-yl]prop-2-en-1-one] | 0.859 nM | 2.08 nM |  |  | 30.4 nM |  | 
11 | Cc1ccc(-c2nn3c(c2-c2ccncc2)CN(C(=O)/C=C/CN(C)C)CC3)cc1 [Example 156, (2E)-4-(dimethylamino)-1-[2-(4-methylphenyl)-3-(pyridin-4-yl)-6,7-dihydropyrazolo[1,5-a]pyrazin-5(4H)-yl]but-2-en-1-one] | 1.45 nM | 4.64 nM |  |  | 98.2 nM |  | 
12 | C=CC(=O)N1CCn2nc(Nc3ccc(Cl)cc3F)c(-c3ccncc3)c2C1 [Example 95, 1-[2-(4-chloro-2-fluoroanilino)-3-(pyridin-4-yl)-6,7-dihydropyrazolo[1,5-a]pyrazin-5(4H)-yl]prop-2-en-1-one] | 40.6 nM | 99.5 nM |  |  | 1210 nM |  | 
13 | COCCN(C)C/C=C/C(=O)N1CCn2nc(-c3ccc(Cl)cc3)c(-c3ccncc3)c2C1 [Example 169, (2E)-1-[2-(4-chlorophenyl)-3-(pyridin-4-yl)-6,7-dihydropyrazolo[1,5-a]pyrazin-5(4H)-yl]-4-[(2-methoxyethyl)(methyl)amino]but-2-en-1-one] | 0.18 nM | 0.385 nM |  |  | 66.9 nM |  | 
14 | O=C(/C=C/CN1CCC1)N1CCn2nc(-c3ccc(Cl)cc3F)c(-c3ccncc3)c2C1 [Example 77, (2E)-4-(azetidin-1-yl)-1-[2-(4-chloro-2-fluorophenyl)-3-(pyridin-4-yl)-6,7-dihydropyrazolo[1,5-a]pyrazin-5(4H)-yl]but-2-en-1-one] | 0.347 nM | 1.6 nM |  |  | 25.9 nM |  | 
15 | C=CC(=O)N1CCn2nc(-c3ccc(Cl)cc3)c(-c3ccnc4[nH]cc(C)c34)c2C1 [Example 175, 1-[2-(4-chlorophenyl)-3-(3-methyl-1H-pyrrolo[2,3-b]pyridin-4-yl)-6,7-dihydropyrazolo[1,5-a]pyrazin-5(4H)-yl]prop-2-en-1-one] | 97.6 nM | 80.4 nM |  |  | 63.5 nM |  | 
16 | C=C(CN(C)C)C(=O)N1CCn2nc(-c3ccc(F)cc3)c(-c3ccncc3)c2C1 [Example 62, 2-[(dimethylamino)methyl]-1-[2-(4-fluorophenyl)-3-(pyridin-4-yl)-6,7-dihydropyrazolo[1,5-a]pyrazin-5(4H)-yl]prop-2-en-1-one] | 29.5 nM | 87.6 nM |  |  | 390 nM |  | 
17 | COc1ccc(-c2nn3c(c2-c2ccnc4[nH]cc(C)c24)CN(C(=O)/C=C/CN(C)C)CC3)cc1 [Example 60, (2E)-4-(dimethylamino)-1-[2-(4-methoxyphenyl)-3-(3-methyl-1H-pyrrolo[2,3-b]pyridin-4-yl)-6,7-dihydropyrazolo[1,5-a]pyrazin-5(4H)-yl]but-2-en-1-one] | 939 nM | 1410 nM |  |  | 647 nM |  | 
18 | CCN(CC)C/C=C/C(=O)N1CCn2nc(-c3ccc(F)cc3)c(-c3ccncc3)c2C1 [Example 69, (2E)-4-(diethylamino)-1-[2-(4-fluorophenyl)-3-(pyridin-4-yl)-6,7-dihydropyrazolo[1,5-a]pyrazin-5(4H)-yl]but-2-en-1-one] | 1.73 nM | 4.78 nM |  |  | 194 nM |  | 
19 | C=CC(=O)N1CCn2nc(-c3cc4ccoc4cc3F)c(-c3ccncc3)c2C1 [Example 112, 1-[2-(6-fluoro-1-benzofuran-5-yl)-3-(pyridin-4-yl)-6,7-dihydropyrazolo[1,5-a]pyrazin-5(4H)-yl]prop-2-en-1-one] | 0.196 nM | 0.448 nM |  |  | 20.3 nM |  | 
20 | C=CC(=O)N1CCn2nc(-c3ccc(OC)c(F)c3)c(-c3ccncc3)c2C1 [Example 42, 1-[2-(3-fluoro-4-methoxyphenyl)-3-(pyridin-4-yl)-6,7-dihydropyrazolo[1,5-a]pyrazin-5(4H)-yl]prop-2-en-1-one] | 1.01 nM | 6.31 nM |  |  | 53.6 nM |  | 
21 | C#CC(=O)N1CCn2nc(-c3ccc(F)cc3)c(-c3ccncc3)c2C1 [Example 13, 1-[2-(4-fluorophenyl)-3-(pyridin-4-yl)-6,7-dihydropyrazolo[1,5-a]pyrazin-5(4H)-yl]prop-2-yn-1-one] | 0.807 nM | 1.26 nM | 0.807 nM | 1.26 nM | 909 nM |  | 909 nM
22 | CN(C)C/C=C/C(=O)N1CCn2nc(-c3cccc(C#N)c3)c(-c3ccncc3)c2C1 [Example 159, 3-{5-[(2E)-4-(dimethylamino)but-2-enoyl]-3-(pyridin-4-yl)-4,5,6,7-tetrahydropyrazolo[1,5-a]pyrazin-2-yl}benzonitrile] | 83.1 nM | 38.7 nM |  |  | 764 nM |  | 
23 | CN(C)C/C=C/C(=O)N1CCn2nc(-c3ccc(Cl)c(Cl)c3)c(-c3ccncc3)c2C1 [Example 29, (2E)-1-[2-(3,4-dichlorophenyl)-3-(pyridin-4-yl)-6,7-dihydropyrazolo[1,5-a]pyrazin-5(4H)-yl]-4-(dimethylamino)but-2-en-1-one] | 1.19 nM | 1.54 nM |  |  | 422 nM |  | 
